Square brackets hold non-standard residues; d marks the D form. Peptide text beside a SMILES is read from it. * marks the point of attachment. Dolaproine = CO[C@@H]([C@@H]1CCCN1)[C@@H](C)C(=O)O; Dil = CC[C@H](C)[C@H](NC)[C@@H](CC(=O)O)OC; X1 = C[C@@H](N*)[C@@H](O)c1ccccc1; NMeV = CN[C@H](C(=O)O)C(C)C
Key:
[1] = biological target: FOLH1 (Homo sapiens, UniProt Q04609); experiment: Gator binding affinity to FOLH1 (SA probe with Biotin-CB-20BK, analyte FOLH1); design: purchased Sino Biologicals 15877-H07H
Procedure: SA probe (Probe Life, Cat #: 1906018)
Buffer: Q buffer (Probe Life), 10 mM, pH=7.4
(2) The experiment was carried out according to Gator™ (Probe Life) instruction manual to determine the binding affinity of Biotin-CB-20BK to FOLH1. In the experiment, SA probe binds to ligand Biotin-CB-20BK, and the analyte is FOLH1 (Sino Biologicals, Cat #: 15877-H07H).

[2] = system: lung cancer PDX model LU1206; experiment: Effectiveness in lung cancer LU1206 model (PDX model); assay type: in vivo, BALB/c nude mice
Procedure: BALB/c nude mice bore tumors subcutaneously and, when the tumor volume reached about 150 mm^3, were grouped into: low-dose, medium-dose and high-dose test sample groups, a small molecule MMAE control group, a targeting polypeptide 20BK-SM09 control group, and a blank control group (a total of 6 groups, and 8 mice per group); the mice were administered on day 1, day 8 and day 15 after the grouping; and the observation was continued for 14 days after the last administration.

[3] = system: MDA-MB-468 (human breast cancer cells); experiment: Inhibition of cell line proliferation, CCK8; assay type: cell-based; settings: MDA-MB-468, 68-72 hours, CCK8
[4] = 0.375 mg/kg on day 1, 8, 15, euthanized on day 29

Sequence of FOLH1 (Q04609 44-750 limits assumed): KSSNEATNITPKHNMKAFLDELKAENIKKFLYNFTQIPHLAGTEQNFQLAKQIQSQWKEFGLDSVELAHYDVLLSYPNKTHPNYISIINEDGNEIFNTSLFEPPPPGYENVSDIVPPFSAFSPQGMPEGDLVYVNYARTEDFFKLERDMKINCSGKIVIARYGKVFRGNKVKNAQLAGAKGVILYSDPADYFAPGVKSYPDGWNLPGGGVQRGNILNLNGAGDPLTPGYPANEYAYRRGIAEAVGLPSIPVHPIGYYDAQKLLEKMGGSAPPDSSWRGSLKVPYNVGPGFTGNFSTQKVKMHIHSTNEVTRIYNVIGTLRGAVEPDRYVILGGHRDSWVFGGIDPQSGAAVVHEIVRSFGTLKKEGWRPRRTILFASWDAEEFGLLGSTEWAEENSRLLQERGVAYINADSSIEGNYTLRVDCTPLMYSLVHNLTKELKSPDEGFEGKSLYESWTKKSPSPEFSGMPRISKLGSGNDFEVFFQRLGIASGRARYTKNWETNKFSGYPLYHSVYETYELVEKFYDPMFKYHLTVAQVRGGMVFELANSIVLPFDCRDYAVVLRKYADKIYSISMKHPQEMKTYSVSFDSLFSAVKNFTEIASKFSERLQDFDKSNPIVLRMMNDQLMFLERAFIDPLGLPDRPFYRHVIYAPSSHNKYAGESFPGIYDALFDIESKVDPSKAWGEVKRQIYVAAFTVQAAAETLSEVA

| SMILES | binding to FOLH1 (in words) [1] | tumor growth inhibition effect (in words) ([2]; 0.375 mg/kg) | Tumor volume ([2]; 0.375 mg/kg on day 1, 8, 15) [mm^3] | Tumor volume Tumor growth inhibition rate ([2]; 0.375 mg/kg on day 1, 8, 15) [%] | Tumor weight [2, 4] [mg] | Tumor weight Inhibition ratio [2, 4] [%] | IC50 [3] [nM] |
| --- | --- | --- | --- | --- | --- | --- | --- |
| CC[C@H](C)[C@@H]([C@@H](CC(=O)N1CCC[C@H]1[C@H](OC)[C@@H](C)C(=O)N[C@H](C)[C@@H](O)c1ccccc1)OC)N(C)C(=O)[C@@H](NC(=O)[C@H](C(C)C)N(C)C(=O)OCc1ccc(NC(=O)C(CCCNC(N)=O)NC(=O)[C@@H](NC(=O)CCCCCN2C(=O)CC(SC[C@H](NC(=O)[C@H](CCCCN)NC(=O)[C@H](CC(=O)O)NC(=O)[C@H](CC(=O)O)NC(=O)Cc3ccc(CNC(=O)NCCCC[C@H](NC(=O)N[C@@H](CCC(=O)O)C(=O)O)C(=O)O)cc3)C(=O)N[C@@H](CCCCNC(=O)CC[C@H](NC(=O)c3ccc(NCc4cnc5[nH]c(N)nc(=O)c5n4)cc3)C(=O)O)C(N)=O)C2=O)C(C)C)cc1)C(C)C (stereo partly shown) [CB-20BK] | binds to FOLH1 with a good affinity | – | – | – | – | – | – |
| CC[C@H](C)[C@@H]([C@@H](CC(=O)N1CCC[C@H]1[C@H](OC)[C@@H](C)C(=O)N[C@H](C)[C@@H](O)c1ccccc1)OC)N(C)C(=O)[C@@H](NC(=O)[C@@H](NC)C(C)C)C(C)C [MMAE, monomethyl auristatin E] (H-[NMeV]V[Dil][Dolaproine]-X1) | – | clear tumor growth inhibition effect | 778.32 | 36.03 | 437.73 | 54.53 | 2 |
